Assay results published in paper PMC6337391 (Molecules, 2019).

How the values were obtained:
[1] = biological target: T1, soybean lipoxygenase (Glycine max, UniProt P08170); assay: biochemical; assay type: biochemical; conditions: soybean LOX
T1 sequence (P08170 1-839): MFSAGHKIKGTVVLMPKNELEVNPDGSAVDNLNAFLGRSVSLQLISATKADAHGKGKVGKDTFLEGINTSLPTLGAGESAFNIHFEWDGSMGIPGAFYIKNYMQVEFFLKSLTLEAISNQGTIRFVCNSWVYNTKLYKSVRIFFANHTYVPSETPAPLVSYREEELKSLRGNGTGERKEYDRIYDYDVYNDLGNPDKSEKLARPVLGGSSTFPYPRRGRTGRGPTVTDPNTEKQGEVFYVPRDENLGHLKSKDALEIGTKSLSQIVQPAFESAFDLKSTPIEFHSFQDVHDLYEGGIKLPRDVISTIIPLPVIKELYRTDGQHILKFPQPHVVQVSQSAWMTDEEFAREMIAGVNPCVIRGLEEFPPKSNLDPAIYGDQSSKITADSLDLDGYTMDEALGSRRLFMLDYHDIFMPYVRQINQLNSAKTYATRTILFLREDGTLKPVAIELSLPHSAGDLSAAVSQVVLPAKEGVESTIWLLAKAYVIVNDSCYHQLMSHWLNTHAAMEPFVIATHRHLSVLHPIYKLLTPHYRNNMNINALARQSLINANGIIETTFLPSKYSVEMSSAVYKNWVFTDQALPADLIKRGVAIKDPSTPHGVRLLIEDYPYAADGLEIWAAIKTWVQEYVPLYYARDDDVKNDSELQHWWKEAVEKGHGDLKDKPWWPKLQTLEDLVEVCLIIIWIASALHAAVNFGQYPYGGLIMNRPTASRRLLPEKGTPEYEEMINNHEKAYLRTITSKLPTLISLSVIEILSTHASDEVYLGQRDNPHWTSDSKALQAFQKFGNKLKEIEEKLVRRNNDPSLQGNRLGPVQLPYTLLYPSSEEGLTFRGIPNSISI
Outline: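 Soybean LOX (enzyme solution 1/9 × 10^−4 w/v in saline) incubated at room temperature with sodium linoleate ([…]) in tris buffer pH 9. Compounds added from DMSO stocks. IC50 derived from several concentrations.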

[2] = system: L929 mouse fibroblasts cells; assay: Cytotoxicity, propidium iodide fluorescence method; assay type: cell-based; conditions: 24-h incubation
Outline: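 L929 cells in EMEM with 10% horse serum were allowed to attach for 24 h, then exposed to 1, 10, 20, 50 and 100 μM compound for 24 h at 37 °C. Cells were detached, stained with propidium iodide, and cell death was measured by flow cytometry.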

[3] = Inhibition of linoleic acid lipid peroxidation (AAPH)
Outline: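 Sodium linoleate oxidation was initiated by AAPH in 0.05 M phosphate buffer, pH 7.4, at 37 °C, with test compound present and DMSO as blank. Conjugated diene hydroperoxide formation was followed as the absorbance increase at 234 nm.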

[4] = ABTS•+ decolorization assay
Outline: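 Compounds (10 mM DMSO stocks, diluted) added to ABTS•+ radical generated by potassium persulfate oxidation of ABTS. Decolorization followed as absorbance at room temperature, with Trolox as standard.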

[5] = biological target: acetyl-cholinesterase (AChE) (Electrophorus electricus, UniProt O42275); assay type: biochemical
Chain of acetyl-cholinesterase (AChE) (O42275 24-633): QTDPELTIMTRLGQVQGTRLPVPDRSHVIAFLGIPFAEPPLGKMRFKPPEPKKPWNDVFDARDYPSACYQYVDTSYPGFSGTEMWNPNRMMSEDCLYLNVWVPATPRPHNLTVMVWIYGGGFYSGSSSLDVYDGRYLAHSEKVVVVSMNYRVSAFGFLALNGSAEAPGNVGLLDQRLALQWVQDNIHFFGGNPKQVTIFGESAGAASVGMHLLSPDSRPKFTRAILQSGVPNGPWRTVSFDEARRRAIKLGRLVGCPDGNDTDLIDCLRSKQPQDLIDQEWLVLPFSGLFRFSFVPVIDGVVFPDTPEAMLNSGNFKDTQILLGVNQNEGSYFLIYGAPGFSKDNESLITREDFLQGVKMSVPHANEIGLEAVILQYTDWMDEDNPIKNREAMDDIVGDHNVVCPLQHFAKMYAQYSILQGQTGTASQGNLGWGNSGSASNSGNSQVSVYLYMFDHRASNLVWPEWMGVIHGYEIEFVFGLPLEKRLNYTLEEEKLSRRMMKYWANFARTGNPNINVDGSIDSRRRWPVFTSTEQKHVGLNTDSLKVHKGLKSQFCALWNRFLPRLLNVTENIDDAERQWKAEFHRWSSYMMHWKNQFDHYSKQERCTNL
Description: We investigated, in vitro, the inhibitory activity of a, b, c, and e derivatives on acetylcholinesterase activity using acetylthiocholine as a substrate [29].
A modified procedure which was followed in our previous publication was performed [29]. A stock solution (10 mM) of the compounds diluted in DMSO was used (final concentration 100 µM).

[6] = Reducing activity with the stable radical DPPH
Outline: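 DPPH (final 0.05 mM) in absolute ethanol mixed with an equal volume of compound at 0.05 or 0.1 mM, ethanol as control. Absorbance at 517 nm read at room temperature after 20 and 60 min, expressed as reducing activity RA%.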

[7] = Lipophilicity as RM values by RP-TLC; assay type: physicochemical; design: key: RM = log[(1/Rf) − 1]; conditions: methanol/water 70/30, SD < 10%
Outline: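 Reversed-phase TLC on silica gel plates impregnated with 5% (v/v) liquid paraffin, methanol/water 70/30 (v/v) mobile phase, saturated tanks at 24 °C, UV detection. RM = log[(1/Rf) − 1] from five Rf measurements.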

[8] = biological target: T2, human h-15-LOX-1 (Homo sapiens, UniProt P16050); assay: Human h-15-LOX-1 screening UV assay; assay type: biochemical; conditions: read-out: h-15-LOX-1 Inhb. IC50
T2 sequence (P16050 1-662): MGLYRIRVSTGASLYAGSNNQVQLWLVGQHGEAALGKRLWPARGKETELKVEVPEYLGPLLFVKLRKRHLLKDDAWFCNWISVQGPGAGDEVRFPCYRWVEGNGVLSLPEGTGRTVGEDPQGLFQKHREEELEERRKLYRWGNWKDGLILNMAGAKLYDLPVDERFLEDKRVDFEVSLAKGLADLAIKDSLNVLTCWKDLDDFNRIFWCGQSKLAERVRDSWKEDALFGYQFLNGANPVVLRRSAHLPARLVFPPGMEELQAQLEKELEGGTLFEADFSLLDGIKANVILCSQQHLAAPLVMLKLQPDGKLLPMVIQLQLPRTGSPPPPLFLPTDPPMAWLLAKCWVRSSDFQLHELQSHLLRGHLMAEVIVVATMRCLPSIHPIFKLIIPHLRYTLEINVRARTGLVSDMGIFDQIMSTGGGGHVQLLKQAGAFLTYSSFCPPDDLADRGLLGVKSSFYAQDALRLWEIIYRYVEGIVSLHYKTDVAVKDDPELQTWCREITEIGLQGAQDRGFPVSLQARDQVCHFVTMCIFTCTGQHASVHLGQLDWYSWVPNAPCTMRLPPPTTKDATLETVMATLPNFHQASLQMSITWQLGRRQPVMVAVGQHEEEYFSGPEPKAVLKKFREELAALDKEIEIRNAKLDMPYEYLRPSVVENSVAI
Description: The residual enzyme activity was measured after 10 min pre-incubation with the tested compounds at room temperature. […] Compound c11 follows.
The assay buffer consists of HEPES titrated to pH 7.5 using a concentrated aqueous solution of NaOH. Linoleic acid (LA) was used as a substrate. The linear absorbance increase in absence of the inhibitor was set as 100%, whereas the absorbance increase in absence of the enzyme was set to 0%. All experiments were performed in triplicate and the average triplicate values and their standard deviations are plotted. The vertical axis describes the residual enzyme activity percent % of the human h-15-LOX-1, whereas the horizontal axis describes the concentration of 50 µM of the compounds. The half maximal inhibitor concentration (IC50) of the inhibitors for h-15-LOX-1 was determined using the same assay (Figure 6 and Figure 7).

Row | Compound | % LOX Inhb. @ 100 μM [1] [%] | IC50 ([1]; read-out: LOX IC50) [µM] | 1 μM Average (% pi) ± σ [2] [%] | 10 μM Average (% pi) ± σ [2] [%] | 20 μM Average (% pi) ± σ [2] [%] | 50 μM Average (% pi) ± σ [2] [%] | 100 μM Average (% pi) ± σ [2] [%] | AAPH% @ 100 μM (anti-lipid peroxidation) [3] [%] | ABTS•+ Inhb. % @ 100 μM [4] | % AChE Inhb. @ 100 μM [5] | RA% 100 μM 20 min [6] | RA% 100 μM 60 min [6] | RM [7] | IC50 [8] [µM]
1 | O=C(/C=C/c1c[nH]c2ccccc12)c1ccc(OCCCOc2ccc(C(=O)/C=C/c3c[nH]c4ccccc34)cc2)cc1 [c6, (2E,2′E)-1,1′-((propane-1,3-diylbis(oxy))bis(4,1-phenylene))bis(3-(1H-indol-3-yl)prop-2-en-1-one)] | 98 | 54 | 1.12 ± 1.15 | 2.2 ± 1.66 | 1.16 ± 0.81 | 3.03 ± 0.02 | 3.03 ± 0.02 | 100 | No | did not present any activity and Νο | No | No | −0.97 | –
2 | O=C(/C=C/C1=C2C=CC=CC2NC1)c1ccc(O)cc1 (centres unmarked) [a6, (E)-3-(2,7a-dihydro-1H-indol-3-yl)-1-(4-hydroxyphenyl) prop-2-en-1-one] | 60 | – | 1.71 ± 2.08 | 1.66 ± 0.59 | 3.25 ± 2.6 | 6.67 ± 1.35 | 6.67 ± 1.35 | 45 | No | Νο | 15% | 2% | −0.65 | –
3 | c1ccc2c(c1)SCc1c-2[nH]c2ccccc12 [PD-146176, reference compound] | – | – | – | – | – | – | – | – | – | – | – | – | – | 16
